pIC50: −log10 of the molar value.
What was measured:
[1] = tested on: acetylcholine effect on heart rate; assay: Inhibition of the effect of acetylcholine on heart rate in guinea pigs; format: in vivo, guinea pig; conditions: Cavia porcellus, 5 min; read-out: -log ED50, Heart (converted)
Protocol: (§1) 5 minutes after the administration of the test substance, 10 microgram/kg of acetylcholine were simultaneously injected intravenously and intra-arterially into anesthetized guinea pigs. The heart rate was recorded directly by extracorporeal derivation of the ECG, the expiration resistance according to Konzett-Rossler and contraction of the exposed bladder. In order to determine the inhibition of the acetylcholine activity on the organs under investigation, dosage/activity curves were recorded and from them -log ED50 values were determined.

[2] = tested on: acetylcholine effect on bronchi (expiration resistance); assay: Inhibition of the effect of acetylcholine on bronchi in guinea pigs; format: in vivo, guinea pig; conditions: Cavia porcellus, 5 min; read-out: -log ED50, Bronchi (converted)
Protocol: as §1

[3] = tested on: acetylcholine effect on bladder contraction; assay: Inhibition of the effect of acetylcholine on the bladder in guinea pigs; format: in vivo, guinea pig; conditions: Cavia porcellus, 5 min; read-out: -log ED50, Bladder (converted)
Protocol: as §1

[4] = target: T1, muscarinic receptors, heart (Rattus norvegicus, UniProt P10980); assay: Receptor binding test in vitro, 3H-NMS displacement, whole heart homogenate; conditions: rat whole heart homogenate 1:400; 0.3 nanomolar 3H-NMS; 30° C., 45 minutes; read-out: Receptor Binding Tests IC50, Heart
T1 construct: The whole heart was cut up with scissors; from tissue; host or cells: whole heart of male Sprague-Dawley rats, homogenate
T1 sequence (P10980 1-466): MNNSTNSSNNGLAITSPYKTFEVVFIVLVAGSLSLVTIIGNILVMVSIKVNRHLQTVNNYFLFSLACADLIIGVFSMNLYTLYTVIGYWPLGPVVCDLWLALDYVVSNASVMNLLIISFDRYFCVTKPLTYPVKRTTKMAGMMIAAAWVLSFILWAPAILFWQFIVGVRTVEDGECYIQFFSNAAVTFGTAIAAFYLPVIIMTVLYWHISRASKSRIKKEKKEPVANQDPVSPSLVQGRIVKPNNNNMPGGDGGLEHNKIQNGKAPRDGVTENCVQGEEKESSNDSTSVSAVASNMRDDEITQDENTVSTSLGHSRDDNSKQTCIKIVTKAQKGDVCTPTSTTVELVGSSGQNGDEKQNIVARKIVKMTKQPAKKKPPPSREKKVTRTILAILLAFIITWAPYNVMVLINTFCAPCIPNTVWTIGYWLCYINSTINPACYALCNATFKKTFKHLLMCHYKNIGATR
Protocol: (§2) The organs were donated by male Sprague-Dawley rats weighing 180-220 g. After the heart and submandular gland and cerebral cortex had been removed, all other steps were carried out in ice cold Hepes HCl buffer (pH 7.4; 100 millimolar NaCl, 10 millimolar MgCl2). The whole heart was cut up with scissors. All the organs were then homogenized in a Potter apparatus.
(§3) For the binding test the homogenized organs were diluted as follows:
(§4) The homogenized organs were incubated at a certain concentration of the radioligand and at a series of concentrations of the non-radioactive test substances in an Eppendorf centrifuge tube at 30° C. Incubation lasted 45 minutes. The radioligand used was 0.3 nanomolar ^3 H--N- methylscopolamine (^3 H-NMS). Incubation was ended by the addition of ice cold buffer followed by vacuum filtration. The filters were rinsed with cold buffer and their radioactivity was determined. It represents the sum of specific and non-specific binding of ^3 H-NMS. The proportion of non-specific binding was defined as the radioactivity which was bound in the presence of 1 micromolar quinuclidinylbenzylate. Each measurement was taken four times. The IC50 values of the non-labelled test substances were determined graphically. They represent that concentration of test substance at which the specific binding of ^3 H-NMS to the muscarinic receptors in the various organs was inhibited by 50%.

vagal bradycardia (M2) = assay: M1/M2 selectivity in the rat: reduction of bradycardia caused by vagus stimulation; format: in vivo; conditions: iv, 5 min, male THOM rats, i.v., dose reducing vagal bradycardia (M2) by 50%, 5 minutes after injection, read-out: -log ED50, Heart (converted)
Protocol: (§5) The dosage of the substances which reduced either the vagal bradycardia (M2) or the rise in blood pressure (M1) by 50% was determined graphically. For the results see Table II.

[5] = target: T2, muscarinic receptors, submandibular gland (Rattus norvegicus, UniProt P08483); assay: Receptor binding test in vitro, 3H-NMS displacement, submandibular gland homogenate; conditions: rat submandibular gland homogenate 1:400; 0.3 nanomolar 3H-NMS; 30° C., 45 minutes; read-out: Receptor Binding Tests IC50, Submandibular gland
T2 construct: All the organs were then homogenized in a Potter apparatus; from tissue; host or cells: submandibular gland of male Sprague-Dawley rats, homogenate
Protocol: as §2, §3, §4

[6] = tested on: secretion of saliva initiated by pilocarpine; assay: Salivation-inhibiting effect in the rat (pilocarpine-induced); format: in vivo; conditions: iv, male THOM rats anesthetized with urethane, i.v., dose reducing volume of saliva by 50%, 2 mg/kg s.c. pilocarpine, read-out: -log ED50, Salivation inhibition (converted)
Protocol: The secretion of saliva was initiated by subcutaneous administration of 2 mg/kg of pilocarpine. The saliva was absorbed with blotting paper and the surface area covered was measured every 5 minutes by planimetry. The dosage of the substance which reduced the volume of saliva by 50% was determined graphically. For the results see Table II.

[7] = target: muscarinic receptors, cerebral cortex; assay: Receptor binding test in vitro, 3H-NMS displacement, cerebral cortex homogenate; conditions: rat cerebral cortex homogenate 1:3000; 0.3 nanomolar 3H-NMS; 30° C., 45 minutes; read-out: Receptor Binding Tests IC50, Cortex
Protocol: as §2, §3, §4

[8] = tested on: rise in blood pressure caused by McN-A-343 (M1); assay: M1/M2 selectivity in the rat: reduction of rise in blood pressure caused by McN-A-343; format: in vivo; conditions: iv, 5 min, male THOM rats, i.v., dose reducing rise in blood pressure (M1) caused by 0.3 mg/kg McN-A-343 by 50%, read-out: -log ED50, Blood pressure (converted)
Protocol: as §5

T2 sequence (P08483 whole entry): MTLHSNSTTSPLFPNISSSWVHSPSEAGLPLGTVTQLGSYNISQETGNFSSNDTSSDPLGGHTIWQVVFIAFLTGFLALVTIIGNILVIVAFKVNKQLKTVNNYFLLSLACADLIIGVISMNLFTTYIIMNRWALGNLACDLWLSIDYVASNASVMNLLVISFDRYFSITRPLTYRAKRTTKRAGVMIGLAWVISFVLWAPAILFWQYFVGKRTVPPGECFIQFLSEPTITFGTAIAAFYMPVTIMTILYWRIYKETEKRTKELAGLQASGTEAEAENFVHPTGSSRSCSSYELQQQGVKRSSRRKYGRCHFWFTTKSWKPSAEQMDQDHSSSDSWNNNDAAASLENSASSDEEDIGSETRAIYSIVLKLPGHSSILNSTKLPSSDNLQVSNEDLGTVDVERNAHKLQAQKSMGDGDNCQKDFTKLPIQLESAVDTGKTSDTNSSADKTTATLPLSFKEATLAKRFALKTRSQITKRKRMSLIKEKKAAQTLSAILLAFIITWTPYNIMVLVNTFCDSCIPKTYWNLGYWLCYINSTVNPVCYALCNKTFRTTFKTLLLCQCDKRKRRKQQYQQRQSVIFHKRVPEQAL

| pIC50 [4] | pIC50 [5] | pIC50 [7] | SMILES | ED50 [1] [µmol/kg] | ED50 [2] [µmol/kg] | ED50 [3] [µmol/kg] | ED50 (vagal bradycardia (M2)) [µmol/kg] | ED50 [6] [µmol/kg] | ED50 [8] [µmol/kg] |
| --- | --- | --- | --- | --- | --- | --- | --- | --- | --- |
|  |  |  | CN1CCCC1CCNCC(=O)N1c2ccccc2C(=O)Nc2cccnc21 (stereo not drawn) [A, 5,11-dihydro-11-[[[2-(1-methyl-2-pyrrolidinyl)ethyl]amino]acetyl]-6H-pyrido[2,3-b][1,4]benzodiazepin-6-one] | 0.0977 | 0.102 | 0.537 |  |  |  |
| 8.22 | 7.30 | 7.52 | CCN1CCCC1CN(C)CC(=O)N1c2ccccc2C(=O)Nc2cccnc21 (stereo not drawn) [B, 5,11-dihydro-11-[[[(1-ethyl-2-pyrrolidinyl)methyl]methylamino]acetyl]-6H-pyrido[2,3-b][1,4]benzodiazepin-6-one] | 0.0457 | 0.0347 | 1.17 | 0.00741 | 0.813 | 0.141 |
|  |  |  | CCN(CC)CC1CCCCN1CC(=O)N1c2ccccc2C(=O)Nc2cccnc21 (stereo not drawn) [C, 11-[[2-[(diethylamino)methyl]-1-piperidinyl]acetyl]-5,11-dihydro-6H-pyrido[2,3-b][1,4]benzodiazepin-6-one, reference compound] |  |  |  | 0.38 | 10 |  |
|  |  |  | CN1[C@@H]2CC[C@H]1C[C@@H](OC(=O)C(CO)c1ccccc1)C2 (stereo partly drawn) [E, atropine, reference compound] | 0.02 |  | 0.0933 | 0.0115 |  | 0.0457 |

From patent US5026699A, “Use of 5,11-dihydro-6H-pyrido[2,3-b][1,4]-benzodiazepin-6-ones substituted in the 11-position for treating bradycardia and bradyarrhythmia in human and veterinary medicine” (Dr. Karl Thomae GmbH, priority 1988, dated 1991)
